{
  "source": "patent US8604217B2",
  "about": "“Compound, a process for its preparation, a pharmaceutical composition, use of a compound, a method for modulating or regulating serine/threonine kinases and a serine/threonine kinases modulating agent” (Selvita S.A., priority 2009, dated 2013)",
  "experiment_in_all_cases": "KinaseProfiler kinase panel",
  "type_in_all_cases": "biochemical",
  "key": {"[1]": {"biological_target": "Flt3(D835Y)(h) (Homo sapiens (Human), UniProt P36888, D835Y)"}, "[2]": {"biological_target": "Flt4(h) (Homo sapiens (Human), UniProt P35916)"}, "[3]": {"biological_target": "PASK(h) (Homo sapiens (Human), UniProt Q96RG2)"}, "[4]": {"biological_target": "TRKA(h) (Homo sapiens (Human), UniProt P04629)"}, "[5]": {"biological_target": "Axl(h) (Homo sapiens (Human), UniProt P30530)"}, "[6]": {"biological_target": "cKit(V654A)(h) (Homo sapiens (Human), UniProt P10721, V654A)"}, "[7]": {"biological_target": "TRKB(h) (Homo sapiens (Human), UniProt Q16620)"}, "[8]": {"biological_target": "PKBγ(h) (Homo sapiens (Human), UniProt Q9Y243)"}, "[9]": {"biological_target": "IRAK4(h) (Homo sapiens (Human), UniProt Q9NWZ3)"}, "[10]": {"biological_target": "IKKα(h) (Homo sapiens (Human), UniProt O15111)"}, "[11]": {"biological_target": "STK33(h) (Homo sapiens (Human), UniProt Q9BYT3)"}, "[12]": {"biological_target": "CaMKIIβ(h) (Homo sapiens (Human), UniProt Q13554)"}, "[13]": {"biological_target": "Fgr(h) (Homo sapiens (Human), UniProt P09769)"}, "[14]": {"biological_target": "PKA(h) (Homo sapiens (Human), UniProt P17612)"}, "[15]": {"biological_target": "MST1(h) (Homo sapiens (Human), UniProt Q13043)", "sequence (Q13043 whole entry)": "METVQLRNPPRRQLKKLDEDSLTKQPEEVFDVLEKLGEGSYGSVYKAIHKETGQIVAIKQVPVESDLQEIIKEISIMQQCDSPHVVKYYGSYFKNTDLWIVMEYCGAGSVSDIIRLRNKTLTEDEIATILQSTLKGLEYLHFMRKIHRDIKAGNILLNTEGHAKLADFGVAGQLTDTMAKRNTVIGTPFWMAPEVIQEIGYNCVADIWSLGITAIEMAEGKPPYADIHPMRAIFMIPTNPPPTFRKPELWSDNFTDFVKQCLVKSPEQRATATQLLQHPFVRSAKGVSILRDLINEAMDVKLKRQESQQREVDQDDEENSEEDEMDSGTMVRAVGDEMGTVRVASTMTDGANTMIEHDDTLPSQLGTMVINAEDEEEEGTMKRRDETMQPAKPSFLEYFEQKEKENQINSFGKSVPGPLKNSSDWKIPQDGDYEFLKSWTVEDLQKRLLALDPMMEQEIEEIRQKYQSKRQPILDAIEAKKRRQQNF"}, "[16]": {"biological_target": "Met(Y1248C)(h) (Homo sapiens (Human), UniProt P08581, Y1248C)"}, "[17]": {"biological_target": "PrKX(h) (Homo sapiens (Human), UniProt P51817)"}, "[18]": {"biological_target": "EphA1(h) (Homo sapiens (Human), UniProt P21709)"}, "[19]": {"biological_target": "BRK(h) (Homo sapiens (Human), UniProt Q13882)"}, "[20]": {"biological_target": "SGK2(h) (Homo sapiens (Human), UniProt Q9HBY8)"}, "[21]": {"biological_target": "Rsk2(h) (Homo sapiens (Human), UniProt P51812)", "sequence (P51812 whole entry)": "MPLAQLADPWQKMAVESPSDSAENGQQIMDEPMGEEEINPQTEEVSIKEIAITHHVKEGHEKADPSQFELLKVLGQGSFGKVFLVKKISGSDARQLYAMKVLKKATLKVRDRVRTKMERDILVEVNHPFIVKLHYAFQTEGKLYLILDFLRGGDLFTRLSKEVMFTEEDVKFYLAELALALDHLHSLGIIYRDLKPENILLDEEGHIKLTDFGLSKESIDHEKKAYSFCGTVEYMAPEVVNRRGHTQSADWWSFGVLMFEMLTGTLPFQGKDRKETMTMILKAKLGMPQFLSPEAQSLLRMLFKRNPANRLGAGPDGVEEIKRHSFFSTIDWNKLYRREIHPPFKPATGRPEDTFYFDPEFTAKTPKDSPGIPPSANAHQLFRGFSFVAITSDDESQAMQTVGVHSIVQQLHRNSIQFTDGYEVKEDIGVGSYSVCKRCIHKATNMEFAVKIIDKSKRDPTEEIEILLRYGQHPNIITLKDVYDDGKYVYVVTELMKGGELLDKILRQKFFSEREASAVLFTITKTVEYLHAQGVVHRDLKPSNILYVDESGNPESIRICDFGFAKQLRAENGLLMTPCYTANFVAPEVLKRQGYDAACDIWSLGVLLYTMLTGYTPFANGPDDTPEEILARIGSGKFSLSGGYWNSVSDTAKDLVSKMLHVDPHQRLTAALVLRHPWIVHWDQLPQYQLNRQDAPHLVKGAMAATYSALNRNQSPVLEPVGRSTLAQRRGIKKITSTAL"}, "[22]": {"biological_target": "DRAK1(h) (Homo sapiens (Human), UniProt Q9UEE5)"}, "[23]": {"biological_target": "ULK3(h) (Homo sapiens (Human), UniProt Q6PHR2)"}, "[24]": {"biological_target": "NEK3(h) (Homo sapiens (Human), UniProt P51956)"}, "[25]": {"biological_target": "MSSK1(h) (Homo sapiens (Human), UniProt Q9UPE1)"}, "[26]": {"biological_target": "SGK(h) (Homo sapiens (Human), UniProt O00141)"}, "[27]": {"biological_target": "Snk(h) (Homo sapiens (Human), UniProt Q9NYY3)"}, "[28]": {"biological_target": "BrSK2(h) (Homo sapiens (Human), UniProt Q8IWQ3)"}, "[29]": {"biological_target": "SAPK2b(h) (Homo sapiens (Human), UniProt Q15759)"}, "[30]": {"biological_target": "Tie2(Y897S)(h) (Homo sapiens (Human), UniProt Q02763, Y897S)", "sequence (Q02763 23-1124 Y897S)": "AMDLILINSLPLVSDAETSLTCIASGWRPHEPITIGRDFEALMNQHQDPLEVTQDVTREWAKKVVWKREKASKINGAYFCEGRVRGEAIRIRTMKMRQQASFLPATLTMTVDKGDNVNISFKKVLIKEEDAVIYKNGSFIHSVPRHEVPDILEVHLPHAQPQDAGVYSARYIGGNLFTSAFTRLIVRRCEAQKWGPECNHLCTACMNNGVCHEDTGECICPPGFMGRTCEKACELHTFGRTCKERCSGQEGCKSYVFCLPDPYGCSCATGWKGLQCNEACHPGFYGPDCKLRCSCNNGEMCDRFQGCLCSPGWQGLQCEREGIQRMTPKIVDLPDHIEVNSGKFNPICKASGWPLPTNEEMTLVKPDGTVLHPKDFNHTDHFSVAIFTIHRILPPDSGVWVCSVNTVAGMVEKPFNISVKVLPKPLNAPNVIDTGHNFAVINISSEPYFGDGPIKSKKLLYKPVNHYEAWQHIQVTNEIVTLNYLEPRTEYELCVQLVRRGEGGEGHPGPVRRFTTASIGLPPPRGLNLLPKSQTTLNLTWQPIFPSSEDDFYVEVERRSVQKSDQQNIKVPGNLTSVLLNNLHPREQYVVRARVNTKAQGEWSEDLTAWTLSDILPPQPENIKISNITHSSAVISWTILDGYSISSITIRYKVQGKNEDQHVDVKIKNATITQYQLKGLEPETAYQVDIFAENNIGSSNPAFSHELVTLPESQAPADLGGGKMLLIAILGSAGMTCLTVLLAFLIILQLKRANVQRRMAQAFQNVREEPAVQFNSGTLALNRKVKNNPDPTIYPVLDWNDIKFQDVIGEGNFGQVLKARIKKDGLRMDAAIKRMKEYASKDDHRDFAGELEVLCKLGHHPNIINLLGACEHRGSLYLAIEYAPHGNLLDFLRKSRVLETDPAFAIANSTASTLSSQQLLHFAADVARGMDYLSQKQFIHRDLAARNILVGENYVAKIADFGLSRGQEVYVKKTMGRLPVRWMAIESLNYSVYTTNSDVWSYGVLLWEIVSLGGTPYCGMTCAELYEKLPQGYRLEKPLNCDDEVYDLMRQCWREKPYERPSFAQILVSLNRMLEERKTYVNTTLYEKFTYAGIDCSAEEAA"}, "[31]": {"biological_target": "SGK3(h) (Homo sapiens (Human), UniProt Q96BR1)", "sequence (Q96BR1 whole entry)": "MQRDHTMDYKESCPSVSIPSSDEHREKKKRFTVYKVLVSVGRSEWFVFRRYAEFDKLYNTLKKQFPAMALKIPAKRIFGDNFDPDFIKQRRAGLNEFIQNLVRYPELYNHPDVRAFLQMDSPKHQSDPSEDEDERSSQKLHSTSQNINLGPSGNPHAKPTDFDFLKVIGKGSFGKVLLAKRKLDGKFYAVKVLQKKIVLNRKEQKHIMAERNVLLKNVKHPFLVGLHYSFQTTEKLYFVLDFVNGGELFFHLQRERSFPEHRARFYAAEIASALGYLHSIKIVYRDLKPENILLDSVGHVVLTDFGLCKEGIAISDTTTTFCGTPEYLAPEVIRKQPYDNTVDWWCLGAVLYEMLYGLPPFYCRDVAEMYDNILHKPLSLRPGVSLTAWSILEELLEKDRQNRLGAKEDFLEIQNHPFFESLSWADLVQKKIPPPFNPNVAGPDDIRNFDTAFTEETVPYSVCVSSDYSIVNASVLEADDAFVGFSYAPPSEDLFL"}, "[32]": {"biological_target": "GRK5(h) (Homo sapiens (Human), UniProt P34947)"}, "[33]": {"biological_target": "Txk(h) (Homo sapiens (Human), UniProt P42681)"}, "[34]": {"biological_target": "ASK1(h) (Homo sapiens (Human), UniProt Q99683)", "sequence (Q99683 whole entry)": "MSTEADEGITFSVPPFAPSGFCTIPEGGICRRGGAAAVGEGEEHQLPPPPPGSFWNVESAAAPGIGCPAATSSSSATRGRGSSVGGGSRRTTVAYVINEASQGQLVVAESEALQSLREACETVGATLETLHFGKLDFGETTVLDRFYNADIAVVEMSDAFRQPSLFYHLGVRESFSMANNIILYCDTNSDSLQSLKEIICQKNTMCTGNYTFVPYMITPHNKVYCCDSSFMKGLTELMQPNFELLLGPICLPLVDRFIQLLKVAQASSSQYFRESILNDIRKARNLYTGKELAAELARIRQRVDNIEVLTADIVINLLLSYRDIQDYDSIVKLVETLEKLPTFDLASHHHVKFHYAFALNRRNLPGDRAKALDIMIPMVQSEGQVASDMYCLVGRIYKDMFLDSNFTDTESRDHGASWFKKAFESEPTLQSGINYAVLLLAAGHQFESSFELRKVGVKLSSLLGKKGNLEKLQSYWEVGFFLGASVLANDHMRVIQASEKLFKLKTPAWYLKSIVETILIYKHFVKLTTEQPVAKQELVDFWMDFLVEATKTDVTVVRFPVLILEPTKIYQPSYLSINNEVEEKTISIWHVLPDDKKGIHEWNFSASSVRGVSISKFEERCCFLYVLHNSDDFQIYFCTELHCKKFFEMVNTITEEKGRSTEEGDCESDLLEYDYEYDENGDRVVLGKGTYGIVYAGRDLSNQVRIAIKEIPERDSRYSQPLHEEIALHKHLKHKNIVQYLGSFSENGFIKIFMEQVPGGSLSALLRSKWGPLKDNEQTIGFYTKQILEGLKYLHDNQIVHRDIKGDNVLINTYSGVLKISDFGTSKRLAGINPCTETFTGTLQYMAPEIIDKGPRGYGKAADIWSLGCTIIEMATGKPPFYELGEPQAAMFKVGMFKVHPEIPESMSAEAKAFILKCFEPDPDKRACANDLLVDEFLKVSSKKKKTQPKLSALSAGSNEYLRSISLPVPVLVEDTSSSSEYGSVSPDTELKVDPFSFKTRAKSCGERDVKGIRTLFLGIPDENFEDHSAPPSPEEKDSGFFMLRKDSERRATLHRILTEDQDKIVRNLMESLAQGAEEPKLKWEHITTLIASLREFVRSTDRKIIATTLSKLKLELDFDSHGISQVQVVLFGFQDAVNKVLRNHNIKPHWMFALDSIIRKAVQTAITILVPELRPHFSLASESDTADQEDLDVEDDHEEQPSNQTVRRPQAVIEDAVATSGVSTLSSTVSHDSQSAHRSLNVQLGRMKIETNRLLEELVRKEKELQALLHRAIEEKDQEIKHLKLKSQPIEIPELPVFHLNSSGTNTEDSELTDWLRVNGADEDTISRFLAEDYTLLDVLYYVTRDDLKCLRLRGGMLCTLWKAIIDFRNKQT"}, "[35]": {"biological_target": "MuSK(h) (Homo sapiens (Human), UniProt O15146)", "sequence (O15146 24-869)": "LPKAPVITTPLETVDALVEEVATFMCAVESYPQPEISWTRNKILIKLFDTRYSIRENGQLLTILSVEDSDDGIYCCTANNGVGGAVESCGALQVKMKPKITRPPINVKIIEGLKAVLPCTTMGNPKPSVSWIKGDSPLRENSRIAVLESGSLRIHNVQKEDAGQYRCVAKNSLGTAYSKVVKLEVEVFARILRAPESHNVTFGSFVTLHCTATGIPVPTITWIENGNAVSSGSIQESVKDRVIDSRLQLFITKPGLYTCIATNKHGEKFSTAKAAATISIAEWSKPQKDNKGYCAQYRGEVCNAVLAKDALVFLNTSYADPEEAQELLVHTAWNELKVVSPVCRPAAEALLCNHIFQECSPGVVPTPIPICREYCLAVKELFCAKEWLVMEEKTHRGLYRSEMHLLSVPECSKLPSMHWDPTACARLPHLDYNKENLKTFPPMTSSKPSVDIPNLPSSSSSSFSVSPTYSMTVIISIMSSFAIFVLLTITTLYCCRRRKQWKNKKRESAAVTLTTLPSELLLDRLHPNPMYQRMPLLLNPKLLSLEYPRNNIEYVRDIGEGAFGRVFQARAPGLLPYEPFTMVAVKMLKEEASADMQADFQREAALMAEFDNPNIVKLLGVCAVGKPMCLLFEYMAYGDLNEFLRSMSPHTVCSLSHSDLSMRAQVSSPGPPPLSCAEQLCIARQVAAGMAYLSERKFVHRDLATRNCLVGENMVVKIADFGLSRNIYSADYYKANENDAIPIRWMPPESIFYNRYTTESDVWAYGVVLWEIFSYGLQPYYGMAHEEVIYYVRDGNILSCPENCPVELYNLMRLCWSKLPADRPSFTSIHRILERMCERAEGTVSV"}, "[36]": {"biological_target": "IR(h) (Homo sapiens (Human), UniProt P06213)"}, "[37]": {"biological_target": "PKCι(h) (Homo sapiens (Human), UniProt P41743)"}, "[38]": {"biological_target": "TLK2(h) (Homo sapiens (Human), UniProt Q86UE8)"}, "[39]": {"biological_target": "SRPK1(h) (Homo sapiens (Human), UniProt Q96SB4)"}, "[40]": {"biological_target": "PDK1(h) (Homo sapiens (Human), UniProt O15530)"}},
  "data": [
    {"smiles": "CCn1c(N2CCNCC2)nc2c(Br)c(Br)c(Br)c(Br)c21", "note": "[Compound 416, 4,5,6,7-tetrabromo-1-ethyl-2-(piperazin-1-yl)-1H-benzo[d]imidazole]", "values": [
      {"measurement": "remaining activity at 1 µM", "setting": "[1]", "result": 1, "unit": "%"},
      {"measurement": "remaining activity at 1 µM", "setting": "[2]", "result": 17, "unit": "%"},
      {"measurement": "remaining activity at 1 µM", "setting": "[3]", "result": 28, "unit": "%"},
      {"measurement": "remaining activity at 1 µM", "setting": "[4]", "result": 35, "unit": "%"},
      {"measurement": "remaining activity at 1 µM", "setting": "[5]", "result": 36, "unit": "%"},
      {"measurement": "remaining activity at 1 µM", "setting": "[6]", "result": 36, "unit": "%"},
      {"measurement": "remaining activity at 1 µM", "setting": "[7]", "result": 37, "unit": "%"},
      {"measurement": "remaining activity at 1 µM", "setting": "[8]", "result": 39, "unit": "%"},
      {"measurement": "remaining activity at 1 µM", "setting": "[9]", "result": 52, "unit": "%"},
      {"measurement": "remaining activity at 1 µM", "setting": "[10]", "result": 56, "unit": "%"},
      {"measurement": "remaining activity at 1 µM", "setting": "[11]", "result": 66, "unit": "%"},
      {"measurement": "remaining activity at 1 µM", "setting": "[12]", "result": 67, "unit": "%"},
      {"measurement": "remaining activity at 1 µM", "setting": "[13]", "result": 67, "unit": "%"},
      {"measurement": "remaining activity at 1 µM", "setting": "[14]", "result": 70, "unit": "%"},
      {"measurement": "remaining activity at 1 µM", "setting": "[15]", "result": 71, "unit": "%"},
      {"measurement": "remaining activity at 1 µM", "setting": "[16]", "result": 73, "unit": "%"},
      {"measurement": "remaining activity at 1 µM", "setting": "[17]", "result": 74, "unit": "%"},
      {"measurement": "remaining activity at 1 µM", "setting": "[18]", "result": 75, "unit": "%"},
      {"measurement": "remaining activity at 1 µM", "setting": "[19]", "result": 76, "unit": "%"},
      {"measurement": "remaining activity at 1 µM", "setting": "[20]", "result": 79, "unit": "%"},
      {"measurement": "remaining activity at 1 µM", "setting": "[21]", "result": 81, "unit": "%"},
      {"measurement": "remaining activity at 1 µM", "setting": "[22]", "result": 82, "unit": "%"},
      {"measurement": "remaining activity at 1 µM", "setting": "[23]", "result": 84, "unit": "%"},
      {"measurement": "remaining activity at 1 µM", "setting": "[24]", "result": 85, "unit": "%"},
      {"measurement": "remaining activity at 1 µM", "setting": "[25]", "result": 87, "unit": "%"},
      {"measurement": "remaining activity at 1 µM", "setting": "[26]", "result": 90, "unit": "%"},
      {"measurement": "remaining activity at 1 µM", "setting": "[27]", "result": 90, "unit": "%"},
      {"measurement": "remaining activity at 1 µM", "setting": "[28]", "result": 91, "unit": "%"},
      {"measurement": "remaining activity at 1 µM", "setting": "[29]", "result": 91, "unit": "%"},
      {"measurement": "remaining activity at 1 µM", "setting": "[30]", "result": 91, "unit": "%"},
      {"measurement": "remaining activity at 1 µM", "setting": "[31]", "result": 92, "unit": "%"},
      {"measurement": "remaining activity at 1 µM", "setting": "[32]", "result": 96, "unit": "%"},
      {"measurement": "remaining activity at 1 µM", "setting": "[33]", "result": 99, "unit": "%"},
      {"measurement": "remaining activity at 1 µM", "setting": "[34]", "result": 100, "unit": "%"},
      {"measurement": "remaining activity at 1 µM", "setting": "[35]", "result": 103, "unit": "%"},
      {"measurement": "remaining activity at 1 µM", "setting": "[36]", "result": 104, "unit": "%"},
      {"measurement": "remaining activity at 1 µM", "setting": "[37]", "result": 104, "unit": "%"},
      {"measurement": "remaining activity at 1 µM", "setting": "[38]", "result": 104, "unit": "%"},
      {"measurement": "remaining activity at 1 µM", "setting": "[39]", "result": 106, "unit": "%"},
      {"measurement": "remaining activity at 1 µM", "setting": "[40]", "result": 109, "unit": "%"}
    ]}
  ]
}
